Experimental data as given in article PMC7336998, “Discovery of secondary sulphonamides as IDO1 inhibitors with potent antitumour effects in vivo” (Journal of Enzyme Inhibition and Medicinal Chemistry, 2020).
“Also recorded” adds a separate entry of the source.

Tests used:
[1] = tested on: HeLa cells; experiment: HeLa cell viability by MTT at the end of the IDO1/kynurenine assay; assay type: cell-based, human; conditions: under the experimental conditions of the IDO1 assay
Description: It is well known that IDO1 is broadly expressed in human cancers and is induced by pro-inflammatory cytokines, such as interferon gamma (IFN-γ) and tumour necrosis factor alpha (TNF-α)[41]. Here we utilised a human cervical cancer cell line HeLa that endogenously expresses IDO1 upon IFN-γ treatment to evaluate the IDO1 inhibitory activity of the synthesised compounds by measuring kynurenine secreted into the media. This cell-based assay, as a rapid and simple method for determination IDO1/kynurenine, is closely related to the potency of the enzyme assay and has been widely used to identify various IDO1 inhibitors[19]^,[23]^,[29]^,[42]. In addition, cytotoxic compounds can reduce cell viability, which will decrease the IDO1 levels and then lower the conversion of tryptophan to kynurenine. Thus, we also employed this cellular assay to detect false positive IDO1 inhibitors and cytotoxic compounds by measuring HeLa cell viability. Clinical candidate navoximod was used as an assay control.
Furthermore, the viability of HeLa cells was evaluated by the MTT method at the end of the assay.

[2] = tested on: IDO1 protein expression; experiment: Western blot of IDO1 protein expression in IFN-γ-treated HeLa cells; assay type: cell-based, human
Protocol: (§1) The main bioassays performed in the study, including HeLa cell-based IDO1/kynurenine assay, Western blot analysis, T cell proliferation and Treg cell differentiation experiments, were carried out as described previously.
To exclude the possibility that these secondary sulphonamides inhibit IDO1 activity by down-regulating IDO1 expression, we utilised Western blot to measure the expression of IDO1 protein in HeLa cells treated with different compounds.
Figure 3. […] (B) The greyscale scanning statistical results of A. (C) HeLa cells were incubated with compound 5d (3, 10, 30 μM) for 24 h. (D) The greyscale scanning statistical results of C. (E) HeLa cells were incubated with compound 5d (3, 10, 30 μM) for 48 h. (F) The greyscale scanning statistical results of E. Data are presented as means ± SEM (n = 3).

[3] = tested on: naïve CD4+ T cells co-cultured with B16F1 cells; experiment: FoxP3+ Treg cell differentiation in B16F1-T cell co-culture (flow cytometry); assay type: cell-based, mouse; conditions: 18 μM
Protocol: as §1
Besides causing local tryptophan depletion, high IDO1 expression can also accumulate metabolites of kynurenine pathway. The elevated metabolites can not only induce effector T cell death directly through their cytotoxicity, but also promote the differentiation of naïve CD4^+ T cells into CD4^+ FoxP3^+ Treg cells by activating the AHR pathway. As a highly immunosuppressive subset of CD4^+ T cells, FoxP3^+ Treg cells are critical to the maintenance of immune homeostasis and are involved in tumour immune escape, thereby contributing to tumour development and progression. Therefore, we also utilised co-culture of B16F1 cells with naïve CD4^+ T cells to test whether the synthesised compounds could suppress IDO1 mediated Treg cell differentiation.
Figure 5. Compounds 5d and 8 g inhibited Treg cell differentiation in the cell co-culture system. (A) After co-cultured with B16F1 cells, T cells were collected. Surface staining was performed with CD4^+ FTTC and CD25^+ PE for 30 min at 4 °C. The cells were fixed and permeabilized with fixation buffer and permeabilization wash buffer. The intracellular staining was performed with FoxP3^+ APC for 20 min. The cells were then analysed by flow cytometry analysis. (B) Statistical analysis of result A. Data are represented as ± SEM (n = 3). *p < 0.05, **p < 0.01 vs T + B16F1. TEXT PRINTED IN THE PICTURE: (A) Navoximod: 8.1% (T + B16F1; 1.5 μM) | (A) 8g: 7.8% (T + B16F1; 18 μM) | (A) 5d: 2.1% (T + B16F1; 18 μM)

[4] = tested on: B16F1 melanoma; experiment: B16F1 melanoma xenograft in BALB/c mice; assay type: in vivo, mouse
Protocol: BALB/c mice (6–8 weeks old, 18–22 g) were supplied by Model Animal Research Centre of Nanjing University (Nanjing, China). Mice were maintained under standard specific-pathogen-free (SPF) conditions (21 ± 2 °C and 12-h light: dark cycle). Animal welfare and experimental procedures were carried out strictly in accordance with the Guide for the Care and Use of Laboratory Animals (The Ministry of Science and Technology of China, 2006) and the related ethical regulations of our university. All efforts were made to minimise animals’ suffering and to reduce the number of animals used. Mouse colon cancer cells (CT26) and melanoma cells (B16F1) were cultured and collected by centrifugation (1000 rpm, 5 min) and washed twice with ice-cold PBS. Then cells were diluted to 1 × 10^7/ml and 1 × 10^6 CT26/B16F1 cells (in 0.1 ml PBS) were injected subcutaneously into the right flanks of mice. All mice formed tumours three days after injection. Then mice were randomly distributed into five groups (n = 10/8) according to tumour volumes. 5d ([…], 12.5 mg/kg) were administered (i.g) to each group respectively every day. 5-FU (25 mg/kg) and Cis-platinum (1 mg/kg) were administered (i.p) every three days. Tumour length and tumour width were measured with a Vernier calliper every three days. Tumour volumes were measured and calculated using the equation volume = a × b^2/2, where “a” is the maximal […] and “b” is maximal orthogonal width. After the administration were completed, mice were weighed, euthanized, and tumours were removed and the weight were taken.
For immunohistochemistry staining, the sections were deparaffinized, rehydrated, and washed in 1% PBS-Tween 20, and then treated with 2% hydrogen peroxide, blocked with 3% goat serum (Life Technology, 16210–064) and incubated for 2 h at room temperature with specific primary antibodies. Then the slides were incubated with streptavidin-HRP (Shanghai Gene Company, GK500705) for 40 min, then stained with DAB (Shanghai Gene Company, GK500705) substrate and counter-stained with haematoxylin. Images were acquired by microscopy (Olympus IX51).
In addition, we also utilised a B16F1 melanoma mouse xenograft model to observe the efficacy of compound 5d on the other tumours. Malignant melanoma is a highly invasive tumour and its immunotherapy has been receiving attention in recent years. As mentioned above, B16F1 is a murine melanoma cell line that expresses IDO1. The mouse xenograft model was established by subcutaneously implanting B16F1 melanoma cells into BALB/c mice and treated with 5d (3.125, 6.25, 12.5 mg/kg, i.g, every day) or the positive control Cis-platinum (1 mg/kg, i.p, every other day). Tumour volumes were measured every two days for 11 days.
Figure 13. Compound 5d suppressed melanoma growth in mice. 1 × 10^6 melanoma cells were transplanted subcutaneously into the armpit of the BALB/c mice. Three days after transplantation, mice were randomly allocated to vehicle control or treatment groups (n = 6). Drugs were administered on days 1–11. (A) Tumour volume and mouse body weight (B) were recorded. After sacrifice, solid tumours were separated and weighed (C, D). Data represent mean ± SEM, n = 6, *p < 0.05, **p < 0.01 vs vehicle.
Analogously, we also performed H&E, IHC and TUNEL experiments on the B16F1 melanoma tissues (Figure 14 and 15).

For C=CC(=O)Nc1ccc(S(=O)(=O)NCc2cccc(Cl)c2)cc1 [5d, N-(4-(N-(3-Chlorobenzyl)sulfamoyl)phenyl)acrylamide], the HeLa cell viability [1] was “without affecting the cell viability”, the “expression of IDO1 protein” value ([2]; HeLa cells, 3, 10, 30 µM for 24 h or 48 h) was “did not affect IDO1 expression” and the “expression of IDO1 protein” value ([2]; HeLa cells, IFN-γ 100 ng/mL 24 h, then compounds at their IC50 concentrations for 24 h) was “did not influence IDO1 expression”. The “FoxP3+ Treg cells (flow cytometry)” value [3] was 2.1%, the “FoxP3+ Treg cell differentiation (in words)” value ([3]; Con A, 48 h) was “significantly reduce FoxP3^+ Treg cell differentiation; also recorded: returned to the initial level” and the “IFN-γ expression (IHC)” value ([4]; B16F1 melanoma tissue) was “up-regulating IFN-γ expression”. The “granzyme B (IHC)” value ([4]; B16F1 melanoma tissue) was “stimulating granzyme B secretion”, the “number of tumour cells (H&E, PCNA, TUNEL)” value ([4]; B16F1 melanoma tissue) was “reduce the number of tumour cells by inhibiting proliferation and inducing apoptosis” and the “tumour growth (tumour volume and tumour weight)” value ([4]; BALB/c mice, 3.125, 6.25, 12.5 mg/kg, i.g, every day, 11 days, vs vehicle) was “significantly suppressed the growth of tumour in a dose-dependent manner”. The body weight ([4]; BALB/c mice, 3.125-12.5 mg/kg i.g, 11 days) was “without significant body weight loss” and the “reduction of average volume of tumour” value ([4]; BALB/c mice, high dose, 11 days) was 34.3%.
